Data reported in the METLIN SMRT retention time set (Domingo-Almenara et al. 2019).

Assay: gradient 5% acetonitrile 3 min, to 50% in 2 min, to 85% in 15 min, held 3 min, 100 µL/min
Conditions: column: Zorbax Extend-C18 2.1 x 50 mm; eluents: water / acetonitrile, 0.1% formic acid
Summary of the method: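 Retention times of pure standards were taken from adduct peaks that were selected by computer and manually inspected. Over 3 months, mixtures of ~100 molecules were run by HPLC–quadrupole time-of-flight mass spectrometry in positive and negative ionization mode. The Zorbax Extend-C18 column (2.1 × 50 mm, 1.8 μm) ran at 100 μL/min in water and acetonitrile, each containing 0.1% formic acid, with 40 μL dead volume and 900 μL dwell volume.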

## CCn1ccc(C(=O)N2CCC3(CC2)C(=O)N(C)c2ccccc23)n1
  RP-LC retention time: 725 s

## Cn1ncc(N2CCC(C(=O)N3CCN(C(=O)C4COc5ccccc5O4)CC3)CC2)cc1=O (centres undefined)
  RP-LC retention time: 659 s

## O=C1NC2(CCN(C(=O)c3c(F)cccc3F)CC2)N=C1c1cccc(F)c1
  RP-LC retention time: 815 s

## Cc1ccc(CNC(=O)C2(C)CCCN(C(=O)NCCc3ccccc3)C2)cc1 (centres undefined)
  RP-LC retention time: 912 s

## O=C(NC1CCCC1)C1CCN(Cc2noc(-c3ccc(F)cc3)n2)CC1
  RP-LC retention time: 647 s

## Cc1cc(C)cc(N2CCC(NC(=O)c3cccc(C#N)c3)C2=O)c1 (centres undefined)
  RP-LC retention time: 863 s

## Cc1ccc(S(=O)(=O)N2C(=O)CCC2C(=O)Nc2ccc(C)c(C)c2)cc1 (centres undefined)
  RP-LC retention time: 973 s

## COc1ccc(NC(=O)Cn2ncc3c(c2=O)N(C2CC2)C(=O)CS3)cc1OC
  RP-LC retention time: 647 s

## CCn1cnc2c1CN(C(=O)c1ccc3c(c1)OCO3)CC2
  RP-LC retention time: 564 s

## Cc1ccc(C)c(CN2CCC(F)(c3nc(-c4cnccn4)no3)CC2)c1
  RP-LC retention time: 650 s

## Cc1noc2ncn(CC(=O)Nc3ccccc3Br)c(=O)c12
  RP-LC retention time: 761 s

## Cc1cc(C)c(S(=O)(=O)N2CCC(C)(C(=O)NCc3ccc4c(c3)OCO4)CC2)cc1C
  RP-LC retention time: 1010 s

## CCCSCCCNc1nc(-c2nnc(-c3cccc(C)c3)o2)nc2ccccc12
  RP-LC retention time: 1190 s

## CCc1ccc(C(=O)Nc2ccc3c(c2)Sc2ncccc2C(=O)N3C)cc1
  RP-LC retention time: 818 s

## COc1ccc(-c2csc(NC(=O)Cn3nc(C)cc3C)n2)cc1
  RP-LC retention time: 842 s

## O=c1c2sccc2n(Cc2nc(-c3ccc(F)cc3)no2)c(=O)n1-c1ccc(Cl)cc1
  RP-LC retention time: 1070 s

## Cc1ccc(-c2nnc(-c3nc(NCCCN4CCCC4=O)c4ccccc4n3)o2)cc1
  RP-LC retention time: 807 s

## CCN1C(=O)COc2cc(-c3noc(C(=O)N4CCN(C)CC4)n3)ccc21
  RP-LC retention time: 616 s

## COc1ccc(N2CCN(S(=O)(=O)c3cc(-c4nc(C(C)C)cs4)sc3C)CC2)cc1
  RP-LC retention time: 1340 s

## Cc1ccc(NC(=O)NC2CCN(c3ccc(F)c(C)c3)C2=O)cc1C (centres undefined)
  RP-LC retention time: 899 s

## CC(Cc1ccco1)NC(=O)C1CCN(Cc2cn(C)c3ccc(Cl)cc23)CC1 (centres undefined)
  RP-LC retention time: 707 s

## CCOC(=O)C1CCN(C(=O)c2sc(-c3cn(C(C)C)c4ncccc34)nc2C)CC1
  RP-LC retention time: 961 s

## CCCNC(=O)C1CCN(c2nc3ccsc3c(=O)n2-c2cccc(OC)c2)CC1
  RP-LC retention time: 675 s

## O=c1ccn(-c2ccccc2)nc1-c1nc(-c2ccc3c(c2)OCO3)no1
  RP-LC retention time: 835 s

## COc1cccc(NC(=O)N2CCC3(CC2)N=C(c2cccc(Cl)c2)C(=O)N3)c1
  RP-LC retention time: 878 s

## Cc1sc(NC(=O)c2cccc(Br)c2)nc1-c1ccc2c(c1)N(C)C(=O)CO2
  RP-LC retention time: 943 s

## CCCCNC(=O)CSc1nnc2c3cc(-c4ccccc4)nn3ccn12
  RP-LC retention time: 780 s

## Cc1ccc(-c2cc3c(N4CCCC(C(=O)NC(C)C)C4)nccn3n2)c(C)c1 (centres undefined)
  RP-LC retention time: 828 s

## CCN1C(=O)NC(c2cccc(F)c2)C2=C1CN(CCC(=O)N1CCCC1)C2=O (centres undefined)
  RP-LC retention time: 606 s

## CCCn1nnc2cc(-c3noc(CNC(=O)c4ccccc4)n3)ccc21
  RP-LC retention time: 624 s

## COc1ccccc1-c1nnc2sc(-c3cc(CC(C)C)[nH]n3)nn12
  RP-LC retention time: 891 s

## CCc1nnc(-c2ccc3ccn(CC(=O)N4CCN(c5ccccc5F)CC4)c3c2)o1
  RP-LC retention time: 892 s

## O=C(c1ccc2ccccc2n1)N1CCOc2ccc(N3CCOCC3)cc2C1
  RP-LC retention time: 784 s

## CCCNC(=O)CC1CCN(C(=O)c2[nH]c(C)c(C(=O)OCC)c2C)CC1
  RP-LC retention time: 683 s

## COc1ccc2c(c1)C=C(C(=O)NCc1ccccc1)C=CO2
  RP-LC retention time: 940 s

## Cc1ccccc1-c1cn(CC(=O)NCc2ccc(F)c(Cl)c2)nc1N1CCOCC1
  RP-LC retention time: 920 s

## CCC(=O)Nc1ccc(-n2cnc(C(=O)NC3CCCCCC3)c2)nc1
  RP-LC retention time: 759 s

## O=S(=O)(CCc1ccccc1)NCC(O)Cc1ccccc1 (centres undefined)
  RP-LC retention time: 792 s

## Cn1cc(CN2C[C@@H](COc3cccnc3)[C@H](c3ccccn3)C2)cn1
  RP-LC retention time: 528 s

## Cc1ccc(NC(=O)CN2C(=O)CCc3cc(Br)ccc32)cc1
  RP-LC retention time: 931 s

## COc1ccc(NC(=O)C2CN(S(=O)(=O)C3CC3)CC23CCCCC3)c(OC)c1 (centres undefined)
  RP-LC retention time: 961 s

## O=C(NCCn1c(=O)n(Cc2ccc(F)cc2)c2cccnc21)c1ccoc1
  RP-LC retention time: 745 s

## Cc1ccc(C2=NC3(CCN(C(=O)c4n[nH]c5c4CCCC5)CC3)ON2)cc1
  RP-LC retention time: 736 s

## Cc1ccc(-c2cn3ccccc3n2)cc1NS(=O)(=O)c1ccccc1
  RP-LC retention time: 630 s

## COc1ccc(C(=O)/C(Br)=C/C(=O)O)cc1
  RP-LC retention time: 744 s

## O=C(CSc1nnc2c3sc(N4CCCC4)nc3ncn12)Nc1cccc(Cl)c1
  RP-LC retention time: 874 s

## O=C(c1ccc2c(c1)OCO2)N1CC(c2noc(C3CCCN3CC3CC3)n2)C1 (centres undefined)
  RP-LC retention time: 610 s

## COc1ccc(C2CC(=O)c3c(C)nn(-c4nc5ccccc5[nH]4)c3C2)c(OC)c1 (centres undefined)
  RP-LC retention time: 1020 s

## Cc1ccc(-c2nc3cnccn3c2Nc2cc(C)cc(C)c2)cc1
  RP-LC retention time: 1040 s

## O=C(CN1C(=O)C2CCCCN2c2ccc(S(=O)(=O)N3CCCC3)cc21)NC1CC1 (centres undefined)
  RP-LC retention time: 770 s

## COc1ccc(NC(=O)C2CC(=O)N(c3n[nH]c4cccc(F)c34)C2)cc1 (centres undefined)
  RP-LC retention time: 717 s

## Cc1ccc(-c2nc3cccnc3n2C2CCN(S(=O)(=O)c3cccnc3)C2)cc1 (centres undefined)
  RP-LC retention time: 728 s

## O=C(NC1CCN(C(=O)c2cn(-c3cccc(F)c3)nn2)CC1)c1ccc2ccccc2n1
  RP-LC retention time: 831 s

## O=C1[C@H]2CN(Cc3cccc(F)c3F)C[C@H]2C(=O)N1Cc1ccc2c(c1)OCO2
  RP-LC retention time: 919 s

## COc1ccc(C2(C(=O)N3[C@H]4CC[C@@H]3c3cnc(C)nc3C4)CCCCC2)cc1
  RP-LC retention time: 812 s

## CCc1nc2ccc(-c3noc(-c4cccs4)n3)cc2n1CC
  RP-LC retention time: 702 s

## O=C(NCc1cnoc1-c1ccc(F)cc1)c1ccccc1
  RP-LC retention time: 844 s

## COc1ccc(C(=O)N2CCC(c3nc4cccnc4n3C)C2)cc1F (centres undefined)
  RP-LC retention time: 651 s

## Cc1ccccc1-c1nc(C2CC(=O)N(c3ccc(Cl)cc3)C2)no1 (centres undefined)
  RP-LC retention time: 1090 s

## CCOc1cc(Cl)c(S(=O)(=O)Nc2cccnc2)cc1Cl
  RP-LC retention time: 717 s

## Cc1ccc(NC(=O)Cn2cnc3c(sc4nc(-c5ccccc5)ccc43)c2=O)cc1Cl
  RP-LC retention time: 1120 s

## CCCCc1ccc(NC(=O)Cn2cnc3nc(N4CCCC(C(=O)NCC)C4)sc3c2=O)cc1 (centres undefined)
  RP-LC retention time: 801 s

## COc1ccc(OC)c(NC(=O)C2CCN(S(=O)(=O)c3c(C)nn(-c4ccccc4)c3C)CC2)c1
  RP-LC retention time: 974 s

## Cc1nc2ccn(Cc3cccnc3)c(=O)c2cc1C(=O)NCc1ccco1
  RP-LC retention time: 575 s

## c1ccc(-c2nc3cc(-c4noc(-c5ccco5)n4)ccc3o2)cc1
  RP-LC retention time: 1240 s

## Cc1ccc(S(=O)(=O)N2CCC(n3c(-c4ccco4)nc4cccnc43)C2)cc1Cl (centres undefined)
  RP-LC retention time: 999 s

## C#CCOCC1CCN(C(=O)CSC2CCCC2)CC1
  RP-LC retention time: 852 s

## Cc1sc(-c2ccn[nH]2)cc1NC(=O)CCc1ccccc1
  RP-LC retention time: 966 s

## Cn1c(=O)n(C)c2cc(CNCC(O)c3ccccc3)ccc21 (centres undefined)
  RP-LC retention time: 569 s

## CCc1nnc(-c2ccc3ccn(CC(=O)N4CCN(c5ccc(OC)cc5)CC4)c3c2)o1
  RP-LC retention time: 784 s

## Cc1cccc2c(=O)n(C3CCN(C(=O)Nc4ccc(F)cc4)CC3)cnc12
  RP-LC retention time: 765 s

## CC(C)(C)C(=O)N1CCC(C(=O)Nc2nc3ccc(S(C)(=O)=O)cc3s2)CC1
  RP-LC retention time: 718 s

## CC(Cc1ccco1)NC(=O)Cn1c(=O)c(=O)n(C)c2ncccc21 (centres undefined)
  RP-LC retention time: 688 s

## Cc1nc(-c2cccc(-c3noc(CNC(=O)c4ccccc4)n3)c2)cs1
  RP-LC retention time: 918 s

## Cc1ccc(N2CC(C(=O)NC(C)C)CC2=O)cc1 (centres undefined)
  RP-LC retention time: 712 s

## CCOC(=O)C1CCCN(S(=O)(=O)c2cccs2)C1 (centres undefined)
  RP-LC retention time: 830 s

## O=C(OCc1nc2ccccc2s1)c1ccc([N+](=O)[O-])s1
  RP-LC retention time: 970 s

## CSc1ccccc1NC(=O)C(=O)NCCn1nc(-c2ccco2)ccc1=O
  RP-LC retention time: 781 s

## CCCN1C(=O)C(CC(=O)N(C)C)Sc2ncccc21 (centres undefined)
  RP-LC retention time: 655 s

## Cc1nc2c(NC(=O)COc3ccccc3C)cccn2n1
  RP-LC retention time: 916 s

## O=C(Nc1ccc2nncn2c1)Nc1cc(F)ccc1F
  RP-LC retention time: 726 s

## Cc1cc(=O)n(CC(=O)N2CCc3ccccc32)c(N)n1
  RP-LC retention time: 608 s

## O=C1NC2(CCN(C(=O)NCc3cccc(F)c3)CC2)Nc2cc(Cl)ccc21
  RP-LC retention time: 770 s

## COc1ccc(C(=O)N2CC(n3cc(COCC4CC4)nn3)C2)cc1
  RP-LC retention time: 712 s

## Cc1ccc2c(c1)OCC(=O)N2Cc1nc(-c2cccc(F)c2)no1
  RP-LC retention time: 1070 s

## O=c1c2ccccc2n(Cc2nc(-c3cccc(Br)c3)no2)c(=O)n1CC1CCCO1 (centres undefined)
  RP-LC retention time: 1150 s

## O=C(Nc1ccc(OCc2cc(C(=O)NC3CC3)no2)cc1)c1ccc(Cl)cc1
  RP-LC retention time: 872 s

## OCC1OC(n2cnc3c(SCc4ccccc4)ncnc32)C(O)C1O (centres undefined)
  RP-LC retention time: 663 s

## CSc1cccc(NC(=O)N2CCN(c3cc(C)nc(N4CCCC4)n3)CC2)c1
  RP-LC retention time: 696 s
